Tests used:
Myc/Max binding to DNA = Myc/Max binding to DNA (Homo sapiens, UniProt P01106); experiment: Electrophoretic mobility shift assay (EMSA) of Myc/Max binding to DNA; format: biochemical; settings: for remaining activity at 100 µM / remaining activity at 200 µM: EMSA; for remaining activity at 100 µM: 100 uM test compound, read-out: Bound DNA (%) (100uM); for remaining activity at 200 µM: 200 uM test compound, read-out: Bound DNA (%) (200uM)
In short: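 Electrophoretic mobility shift assay of Myc/Max binding to DNA. Compounds tested at 200 μM, 100 μM and 50 μM.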

[1] = test system: cMyc wild-type (WT) and a cMyc KO line; experiment: Cell viability assay against cMyc WT and cMyc KO line; format: cell-based; settings: FIG. 4
Method: Min9 (NUCC-0176234) was also tested in a cell viability assay against a cMyc wild-type (WT) and a cMyc KO line.

[2] = test system: DNA damage (rH2AX staining); experiment: rH2AX staining assay for DNA damage; format: cell-based
Method: Min9 (NUCC-0176234) was also tested for its ability to cause DNA damage in an rH2AX staining assay. We would not expect cMyc-targeting agents to produce significant DNA damage. Compounds that act directly against DNA such as doxorubicin do however. […] (See FIG. 6).

[3] = In vitro metabolism with mouse liver microsomes and mouse S9 fraction; format: in vitro ADME; settings: compared with NUCC-176248
Method: In vitro metabolism of NUCC-176242 and NUCC-176248 were tested using mouse liver microsomes and a mouse S9 fraction.

[4] = Pharmacokinetics in mice after intravenous dosing; format: in vivo; settings: 5 mg/kg intravenously
Method: The pharmacokinetics of NUCC-176242 and NUCC-176248 were studied in mice by administering a dose of 5 mg/kg intravenously and measuring the plasma concentration versus time.

[5] = test system: wild type and Myc knockout rat fibroblasts; experiment: Growth inhibition on wild type and Myc knockout rat fibroblasts; format: cell-based; settings: FIG. 3
Text: We tested the top 13 active compounds in the first screen assay. […] More than half of the tested compounds show better growth inhibitory effect on Myc WT compared to Myc KO cells.

Sequence of Myc/Max binding to DNA (P01106 whole entry): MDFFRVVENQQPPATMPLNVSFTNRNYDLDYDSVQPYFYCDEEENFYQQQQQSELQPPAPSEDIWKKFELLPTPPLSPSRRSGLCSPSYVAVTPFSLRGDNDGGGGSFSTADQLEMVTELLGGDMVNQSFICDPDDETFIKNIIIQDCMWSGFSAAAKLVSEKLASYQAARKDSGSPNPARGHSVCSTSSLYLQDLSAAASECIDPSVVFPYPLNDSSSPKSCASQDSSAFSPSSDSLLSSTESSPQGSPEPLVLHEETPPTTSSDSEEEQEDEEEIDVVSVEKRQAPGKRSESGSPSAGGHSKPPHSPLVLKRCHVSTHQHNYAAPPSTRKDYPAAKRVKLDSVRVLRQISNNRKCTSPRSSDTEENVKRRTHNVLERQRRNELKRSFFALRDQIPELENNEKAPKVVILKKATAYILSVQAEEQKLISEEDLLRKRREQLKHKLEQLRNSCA

IC50 (Myc/Max binding to DNA)	remaining activity at 100 µM (Myc/Max binding to DNA)	remaining activity at 200 µM (Myc/Max binding to DNA)	SMILES	reduction of cell viability, WT vs KO line [1]	DNA damage [2]	metabolism by mouse S9 fraction [3]	in vivo metabolism (plasma concentration versus time) [4]	effective concentration (dose with the greatest selectivity, growth inhibition Myc WT vs KO) [5]	selectivity of growth inhibition for Myc WT over Myc KO cells ([5]; wild type vs Myc knockout rat fibroblasts)
123 µM	79%	10%	CCc1ccc(Oc2c[nH]nc2-c2ccc(OCc3cnn(-c4ccccc4)c3)cc2O)cc1 [NUCC-0176234]	reduces cell viability much more in the WT line than the KO cells	essentially no DNA damage	–	–	–	–
89 µM	36%	2%	CCc1ccc(Oc2c(-c3ccc(OCc4ccc(Cl)cc4)cc3O)n[nH]c2C(F)(F)F)cc1 [NUCC-0176242]	–	–	significantly metabolism by the mouse S9 fraction versus NUCC-176248	correlated well with the observed in vitro metabolism	–	–
96 µM	49%	6%	CCc1ccc(Oc2c(-c3ccc(OCc4ccc(Cl)cc4)cc3O)nn(C)c2C(F)(F)F)cc1 [NUCC-0176248]	–	–	–	correlated well with the observed in vitro metabolism	6 µM	high specificity

From US20170253581A1, “SUBSTITUTED HETEROCYCLES AS c-MYC TARGETING AGENTS” (Northwestern University, priority 2016, published 2017)
